From patent US8580321B2, “Method for reducing the effects of chemotherapy using flagellin related polypeptides” (priority 2003, dated 2013)

Key:
colonic crypts = experiment: BrdU incorporation in colonic crypts; assay type: in vivo, mouse; conditions: BrdU injected 1 hour after CBLB502 i.p.
Procedure: The colon is much less radiosensitive than small intestine. To further examine the relationship between reduced proliferation in the small intestine and radioprotection, we determined the effect of CBLB502 on BrdU incorporation in the colon. CBLB502 or PBS was injected i.p. in mice, BrdU was injected 1 hour later and samples of […] were obtained after additional 1.5 hours (FIG. 34).

[1] = tested on: NIH Swiss mice treated with cisplatinum
NF-κB = experiment: NF-κB-regulated luciferase reporter assay in H116 human colon cancer cells; assay type: cell-based; conditions: for activation of NF-κB-regulated luciferase reporter: H116 cells, luciferase measured six hours after addition
From the text: While translocation of NF-κB to the nucleus is a crucial step in induction of NF-κB-regulated inhibitors of apoptosis, it is not sufficient in itself. To directly test the ability of selected fragments to induce expression of NF-κB-regulated genes, we performed reporter assay experiments. Flagellin and the AA′, BB′, A′ and B′ fragments were used for treatment of H116 human colon cancer cells carrying luciferase gene under a NF-κB-responsive promoter. The reporter construct contained three NF-κB-binding sites from the E-selectin promoter combined with a Hsp70 minimal promoter that is routinely used for the detection of NF-κB status of cells. Luciferase activity was measured in cell lysates six hours after addition of flagellin or its truncated fragments into the medium. TNF was used as positive control.
In order to study the ability of the AA′ fragments to directly activate NF-κB-regulated transcription, we performed reporter assay experiments as described above for a wide range of concentrations of flagellin, original AA′ and AA′-derived fragments.

[2] = tested on: NIH3T3-derived sarcoma and B16 melanoma tumors; experiment: Tumor sensitivity to radiation treatment in syngeneic mouse tumor models; assay type: in vivo
Procedure: Left Panel: NIH3T3-derived sarcoma cells were injected s.c. in NIH-Swiss mice. When tumors reached 7-10 mm in diameter, mice received three 4.3 Gy doses of total body irradiation, with or without pretreatment with AA′. […] U/t: untreated; AA′: AA′ with no irradiation; 3×4Gy: irradiation only; 3×4Gy+AA′: AA′ and irradiation. (The shape of curves reflects slow growth of tumors that is a characteristic of this model). […] Right Panel: The experiment was done in the same way with another syngeneic mouse tumor model: B16 melanoma (C57BL6 background). Treatment was applied when tumors reached 4-5 mm in diameter and involved three subsequent 4 Gy doses of total body gamma radiation applied with or without pretreatment with AA′ (30 min. before irradiation, 5 μg/mouse).
The ultimate test of a potential radioprotective agent in cancer treatment is tumor selectivity, its ability to protect normal tissues while providing no or little protection to the tumor. We injected 10 NIH-Swiss mice subcutaneously, in both flanks (20 tumors total), with 2×10^6 cells of syngeneic sarcoma cell line model (NIH3T3-derived and spontaneously transformed sarcoma with p53 inactivated by dominant negative inhibitor GSE56). When tumors reached the size of 5-7 mm in diameter (day 5), the mice were injected subcutaneously with 0.2 mg/kg of AA′ or saline vehicle and irradiated 1 hours later with […] of total-body y-irradiation (3×4.3 Gy=12.9 Gy total dose). Injections and irradiations were done at days 5, 6 and 7.

[3] = Pharmacokinetics: plasma levels by sandwich ELISA; assay type: in vivo, mouse; conditions: ICR mice
Procedure: Pharmacokinetic parameters (effective concentration and the duration of drug the presence in the organism) may be important for route, dose and time of drug administration. The pharmacokinetics of CBLB502 (AA′) were thus tested for four common routes of injection: intravenous (i.v.), subcutaneous (s.c.), intraperitoneal (i.p.) or intramuscular (i.m.). A radioprotective dose of CBLB502 (AA′), 0.2 mg/kg, was injected in 12-15 week old ICR mice and plasma samples were collected at the specified times after injection (at least 3 mice/point). The levels of CBLB502 in plasma were measured by sandwich ELISA using known concentrations of CBLB502 spiked in the control ICR plasma for calibration.

A549 cells = experiment: Cell growth inhibition assay (methylene blue) after gamma-irradiation, A549; assay type: cell-based, human; conditions: 2 μg/ml, with or without 7 or 10 Gy, 72 hours
Procedure: Tumor cells were seeded in wells of three 96-well plates in 3 different densities (0.5×10^4, 1×10^4 and 2×10^4 cells/well, producing single-cell, spare or semi-contact layer). After cells had attached to plastic, CBLB502 (2 μg/ml) was added to the wells of non-irradiated cells, or 15 min prior to 7 Gy or 10 Gy of gamma-irradiation. Control wells received equal volume of vehicle (PBS). All points were done in quadruplicate. 72 hours after irradiation, medium was replaced with methylene blue in 50%-methanol and the relative numbers of viable cells in wells were measured using spectrophotometer at 650 nm. This experiment was also repeated with fixed dose of 1×10^4 A549 cells/well, CBLB502 was added 1 hour before 5, 10 or 15 Gy of gamma-irradiation (data not shown). We observed a similar effect of flagellin in all tested experiment conditions.

mice [4] = experiment: Acute toxicity in mice; assay type: in vivo, mouse; conditions: s.c. 0.5, 1, 2, 4 and 8 mg/kg, several days after administration
Procedure: The lethal dose of Salmonella flagellin is between 1 mg/kg (systemic inflammation) and 10 mg/kg (100% lethality). We subcutaneously administered increasing doses of AA′ to mice (4 mice per dose group) at 0.5, 1, 2, 4 and 8 mg/kg. Due to the lower (˜60%) molecular weight, 8 mg/kg of AA′ correspond to a molar-equivalent dose of 13.3 mg/kg of flagellin. […] The reduced toxicity may be sue to the absence of the central pro-inflammatory domain in the AA′ fragment.

mice [5] = conditions: known from literature; cited from earlier work
[6] = CBLB502 0.04 mg/kg s.c. 30 min before cisplatinum 20 mg/kg i.p.

AA′: flagellin fragment (1-177)-Linker-(402-505), SEQ ID NO: 8
BrdU incorporation in colon (colonic crypts): no effect | mean weight loss on any given day, cisplatinum 10 mg/kg with CBLB502 ([1]; CBLB502 0.04 mg/kg 30 min prior, n=11): ≤ 15% | weight response, cisplatinum 10 mg/kg with CBLB502 ([1]; CBLB502 0.04 mg/kg s.c. 30 min before cisplatinum 10 mg/kg i.p.): not losing weight | maximum weight loss, cisplatinum 20 mg/kg with CBLB502 [1, 6]: ≤ 20% | survival of animals, cisplatinum 20 mg/kg with CBLB502 [1, 6]: 100% | behavior, cisplatinum with single injection of CBLB502 ([1]; FIG. 39D): active animals | deaths, cisplatinum 10 mg/kg with CBLB502 ([1]; FIG. 39 experiment): No deaths | mice that died, cisplatinum 10 mg/kg with CBLB502 ([1]; death at Day 13, remaining mice survived to at least Day 30): one mouse out of eleven | activation of NF-κB-regulated luciferase reporter (NF-κB): capable of NF-κB activation | level of NF-κB-regulated transcription relative to flagellin (NF-κB; reporter assay, over the studied range of concentrations): comparable to such of flagellin | NF-κB reporter activity relative to flagellin (NF-κB; very low concentration range): more active than flagellin | mice cured and surviving radiotherapy plus AA′ ([2]; 3×4.3 Gy with AA′, irradiated-only mice all died by day 18): 100% | tumor growth in unirradiated mice ([2]; AA′ without irradiation): decrease in the growth rate of tumors | radiation-induced shrinkage of tumors ([2]; s.c. 0.2 mg/kg 1 hour before each of 3 irradiations, sarcoma in NIH-Swiss mice): enhanced | effect on radiosensitivity of tumors ([2]; sarcoma and B16 melanoma): no effect | time with significant (>5 ng/ml) levels in mouse plasma ([3]; 0.2 mg/kg intramuscular injection): > 3 h | disappearance from the bloodstream ([3]; 0.2 mg/kg intravenous injection): more rapid disappearance | levels and persistence in plasma by route ([3]; 0.2 mg/kg, intramuscular or intraperitoneal injection): highest levels and longest persistence | effect on cell numbers (A549 cells): no or slight effect | detrimental effects (mortality, morbidity, systemic inflammation) (mice [4]): no visible detrimental effects

flagellin: Salmonella dublin FliC flagellin, 505 amino acids, SEQ ID NO: 1; recombinant full-length protein
activation of NF-κB-regulated luciferase reporter (NF-κB): capable of NF-κB activation | highest tolerable dose (mice [5]): 300 μg/mouse
